# Patent publication US20230285258A1, “A SUNSCREEN FORMULATION” (priority 2019, published 2023)
# How the values were obtained:
# [1] = formulation containing 10%, 2 mg/cm^2 daily for a week, cited from earlier work
# [2] = Californian females 2007-2009; cited from earlier work
# [3] = Urine samples collected in 2007-2009 from Californian females; type: in vivo, human; settings: from 22.9 ng/mL to 200 ng/mL
# Protocol: Since the first day of sunscreen usage in 1930s, the exposure to sunscreen agents has begun. Initially the scope and frequency of the sunscreen usage among the human population was very limited. Therefore, the levels of UV filters found in human samples were usually low. However, for the last 20 years, the situation changed dramatically. In one epidemiological study conducted in 2003-2004, 2517 urine samples from United States (US) general population were analyzed for the presence of oxybenzone (benzophenone-3, bp-3), as part of the 2003-2004 National Health and Nutrition Examination Survey [A.M. Calafat, L.Y.Wong, X.YE, J.A.Reidy, L.L.Needham, Concentrations of the sunscreen agent benzophenone-3 in residents of the United States: National Health and nutrition Examination Survey 2003-2004, Environ. Health Perspect, 116(2008)893-897]. Oxybenzone was detected in 97% of the all samples with mean concentration of 22.9 ng/ml and 95th percentile concentration of 1040 ng/ml. As the data indicated the sunscreen agent occurrences is widespread. […] 543(2016)28-36]. […]
# [4] = US general population 2003-2004; cited from earlier work
# [5] = Mice skin penetration test (ointment on shaved back, plasma HPLC)
# Protocol: Mice preparation and blood sample taking: A group of mice ranging from 16 to 60 were fed with adequate food and water for 3 days. Twelve hours before the test the food was removed, and only water was given. Usually 12 mice were randomly selected with 2 mice assigned for each time points of 5, 15, 30, 60, 90, 120 minutes. Sometimes 3 mice may be selected for certain sample time points. Two hours before the test the mice were subjected to anesthesia and the hair on the back (2.5--3.0 cm^2) was removed. After recovering from anesthesia mice will be applied with testing ointment sample. The exact same testing procedures will be carried out with the control standard sample. At 5, 15, 30, 60, 90, 120 min. Blood sample (1 mL) will be collected after removing the eyes.
# Blood sample pretreatment: after the blood sample was taken, it was immediately subjected to centrifugation 10 min. at 12000 rpm, supernatant plasma layer was taken, preserved at -20° C. for later use.
# Blood sample preparation: Accurately transfer 150 µL plasma sample to a 1.5 mL EP test tube. Add methanol and acetonitrile 200 µL, respectively. Vertex mix for 1 min., then centrifuge for 10 min. at 12000 rpm. Precisely transfer the supernatant solution to another test tube. At 40° C. blow N2 through to dryness. To the solids left add methanol 150 µL, vertex mix for 1 min. centrifuge at 12000 rpm for 10 min. Supernatant solution was used directly for HPLC analysis.
# (4-Aminomethoxy-2-hydroxy-phenyl)-phenyl-methanone-PAA-OMe-OPr(40): Column: C18 RP column (250 × 4.6 mm, 5 µm); column temperature: 25° C.; mobile phase: MeOH:0.05% Formic Acid = 70:30; Flow rate: 1.0 mL/min.; Wavelength: 310 nm; Injection volume: 20 L;
# 1-[4-(3-Amino-propoxy)-2-hydroxy-phenyl1-3-(4-tert-butyl-phenyl)-propane)-1,3-dione-PAA-OMe-OPr(40): Column: C18 RP column (250 × 4.6 mm, 5 m); column temperature: 25° C.; mobile phase: MeOH:0.05% Formic Acid = 80:20; Flow rate: 1.0 mL/min.; Wavelength: 360 nm; Injection volume: 20 µL; […]
Compound,"mean urine concentration, females ([1]; adults)","mean urine concentration, males ([1]; adults)","maximum plasma concentration, females [1]","maximum plasma concentration, males [1]",average level in urine samples [2],highest level in urine samples [2],increase of average concentration in urine sample compared to the 2003-2004 study [3],95th percentile concentration in urine [4],mean concentration in urine [4],hydrolysis in the plasma ([5]; inferred from mice blood samples after topical application),"sunscreen agent detected in plasma/blood samples by HPLC ([5]; mice, samples at 5, 15, 30, 60, 90, 120 min after topical application)","skin penetration of the sunscreen agent ([5]; topical test formulation on mice back, plasma at 5-120 min, compared with control formulation)"
CCCCC(CC)COC(=O)C=Cc1ccc(OC)cc1 (stereo not drawn) [octyl methoxycinnamate],5 ng/mL,8 ng/mL,10 ng/mL,2 ng/mL,,,,,,,,
COc1ccc(C(=O)c2ccccc2)c(O)c1 [oxybenzone],60 ng/mL,,200 ng/mL,300 ng/mL,around 200 ng/ml,up to 13000 ng/ml,more than 9 folds,1040 ng/mL,22.9 ng/mL,,,
Octandioic Oxybenzone Ester,,,,,,,,,,rapid hydrolysis,no octandioic oxybenzone esters was detected,skin penetration of octandioic oxybenzone ester
Cc1ccc(C=C2C(=O)C3(C)CCC2C3(C)C)cc1 (stereo not drawn) [4-methylbenzylidene camphor],5 ng/mL,,20 ng/mL,20 ng/mL,,,,,,,,
